Test systems include A549 NSCLC; CCRF-CEM leukemia; HCT-15 colon; HS 578T breast; MCF7 breast; SK-MEL-2 melanoma; SNB-19 CNS; SNB-75 CNS; SW-620 colon; T-47D breast.
Common to all, as to experiment: DTP human tumour cell line panel, 48 h

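Each compound was tested at five concentrations against cells in 96-well plates for 48 hours. GI50: concentration for 50% inhibition of growth. TGI marks complete inhibition of growth.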

Usually TGI stands for the concentration at which net growth stops. A high value points to less potent growth arrest. For `Nc1ccn(C2OC(COP(=O)(O)O)C(O)C2O)c(=O)n1` (stereo not given), the TGI was greater than 100 µM in the assay on A549 NSCLC; 0.0742 µM with CCRF-CEM leukemia; greater than 100 µM in the assay with HCT-15 colon; greater than 100 µM with HS 578T breast; greater than 100 µM with MCF7 breast; greater than 100 µM in the assay with SK-MEL-2 melanoma. In addition, the concentration for total growth inhibition (TGI) with SNB-19 CNS, in the assay on SNB-75 CNS, in the assay on SW-620 colon and in the assay on T-47D breast was greater than 100 µM each time.
On to `CCOC(=O)CCc1c(C)c2ccc(O)cc2oc1=O`, for which the TGI with A549 NSCLC, with CCRF-CEM leukemia, with HCT-15 colon, in the assay with HS 578T breast, with MCF7 breast and in the assay on SK-MEL-2 melanoma was greater than 100 µM throughout. The TGI in the assay on SNB-19 CNS, in the assay with SNB-75 CNS, with SW-620 colon and in the assay with T-47D breast was greater than 100 µM each time.
For orientation: GI50 means the concentration at which growth is held to half of that of the control. Take `Fc1ccc(Nc2ccc3cc(OCCCN4CCOCC4)ccc3n2)cc1F`: the GI50 was 5.36 µM in the assay with A549 NSCLC; 7.93 µM with CCRF-CEM leukemia; 2.55 µM in the assay on HCT-15 colon; 3.06 µM with HS 578T breast; 3.11 µM in the assay with MCF7 breast; 4.84 µM in the assay with SK-MEL-2 melanoma. For the same compound, the GI50 in the assay on SNB-19 CNS is 2.78 µM; with SNB-75 CNS, 2.44 µM; in the assay on SW-620 colon, 2.12 µM; with T-47D breast, 6.68 µM. Also, the TGI was greater than 100 µM in the assay with A549 NSCLC; greater than 100 µM with CCRF-CEM leukemia; 10.4 µM in the assay on HCT-15 colon; 9.2 µM with HS 578T breast; 27 µM with MCF7 breast; 33.5 µM in the assay with SK-MEL-2 melanoma. Besides, the TGI with SNB-19 CNS was 7.99 µM; in the assay with SNB-75 CNS, 17.7 µM; in the assay on SW-620 colon, 4.4 µM; in the assay with T-47D breast, greater than 100 µM.
With `N#Cc1c(N)nc(N2CCOCC2)c(C#N)c1-c1cccc(O)c1`, the GI50 in the assay on A549 NSCLC was greater than 100 µM; with CCRF-CEM leukemia it was greater than 100 µM; in the assay on HCT-15 colon it was 67 µM; in the assay with HS 578T breast it was 40.7 µM; in the assay on MCF7 breast, 47 µM; in the assay on SK-MEL-2 melanoma, greater than 100 µM. The GI50 in the assay with SNB-19 CNS was greater than 100 µM; with SNB-75 CNS, 17.2 µM; with SW-620 colon it was greater than 100 µM; in the assay on T-47D breast, 42.7 µM. Also, the TGI in the assay with A549 NSCLC, in the assay with CCRF-CEM leukemia, in the assay on HCT-15 colon, with HS 578T breast, in the assay with MCF7 breast and in the assay on SK-MEL-2 melanoma was greater than 100 µM throughout. Besides, the concentration for total growth inhibition (TGI) is greater than 100 µM in the assay with SNB-19 CNS, 70.6 µM in the assay with SNB-75 CNS, greater than 100 µM with SW-620 colon and greater than 100 µM with T-47D breast.
Regarding `CCOC(=O)c1ccc2[nH]c(Cc3[nH]c4ccc(C(=O)OCC)cc4c3C)c(C)c2c1`, the GI50 in the assay on A549 NSCLC was 1.05 µM; in the assay with CCRF-CEM leukemia, 1.58 µM; with HCT-15 colon, 0.129 µM; in the assay on HS 578T breast, 3.29 µM; in the assay on MCF7 breast, 1.98 µM; in the assay with SK-MEL-2 melanoma, 14.1 µM. In addition, the GI50 in the assay with SNB-19 CNS was 3.9 µM; in the assay with SNB-75 CNS, 4.2 µM; in the assay with SW-620 colon, 1.41 µM; in the assay with T-47D breast, 4.94 µM. Moreover, the total growth inhibition concentration (TGI) in the assay on A549 NSCLC worked out at 5.87 µM; in the assay with CCRF-CEM leukemia, 28.7 µM; in the assay with HCT-15 colon it was 21.4 µM; with HS 578T breast it was 23.1 µM; with MCF7 breast, 22.6 µM; with SK-MEL-2 melanoma, 40.5 µM. The TGI in the assay on SNB-19 CNS is 25.9 µM; in the assay on SNB-75 CNS, 23.4 µM; in the assay on SW-620 colon, 15.6 µM; in the assay on T-47D breast, 23.9 µM.
With `OCC1OC(O)C(N=Cc2ccc3c(c2)OCO3)C(O)C1O` (stereo not given), the TGI in the assay with A549 NSCLC was greater than 100 µM; in the assay with CCRF-CEM leukemia it was greater than 40.1 µM; with HCT-15 colon, greater than 100 µM; in the assay on HS 578T breast, greater than 100 µM; in the assay with MCF7 breast it was greater than 100 µM; with SK-MEL-2 melanoma it was greater than 100 µM. In addition, the concentration for total growth inhibition (TGI) in the assay on SNB-19 CNS, in the assay on SNB-75 CNS, in the assay on SW-620 colon and in the assay on T-47D breast was greater than 100 µM in each case.
Turning to `Cc1ccc(-c2nc3nc(-c4ccc(Cl)cc4)nc(N4CCCNCC4)c3o2)cc1`, the GI50 was 1.91 µM with A549 NSCLC; 0.7 µM with CCRF-CEM leukemia; 1.57 µM in the assay with HCT-15 colon; 1.93 µM in the assay with HS 578T breast; 1.7 µM in the assay on MCF7 breast; 2.04 µM in the assay on SK-MEL-2 melanoma. Besides, the GI50 in the assay on SNB-19 CNS is 1.7 µM; with SNB-75 CNS, 1.2 µM; with SW-620 colon, 1.7 µM; in the assay with T-47D breast it was 1.94 µM. Besides, the concentration for total growth inhibition (TGI) in the assay on A549 NSCLC stood at 3.83 µM; in the assay on CCRF-CEM leukemia, 2.91 µM; in the assay on HCT-15 colon, 3.08 µM; in the assay on HS 578T breast, 4.17 µM; in the assay on MCF7 breast it was 3.39 µM; in the assay on SK-MEL-2 melanoma, 3.94 µM. Also, the TGI came to 3.12 µM with SNB-19 CNS, 2.47 µM in the assay with SNB-75 CNS, 3.32 µM with SW-620 colon and 4.14 µM with T-47D breast.
Consider `CN(C)c1ccc2[nH]c(O)c(C=Nc3ccc(S(N)(=O)=O)cc3)c2c1`, for which the GI50 in the assay on A549 NSCLC is greater than 25 µM; with CCRF-CEM leukemia, 17.9 µM; with HCT-15 colon it was greater than 25 µM; in the assay on HS 578T breast it was greater than 25 µM; in the assay on MCF7 breast, 19 µM; in the assay with SK-MEL-2 melanoma, greater than 25 µM. Also, the GI50 is greater than 25 µM in the assay on SNB-19 CNS, greater than 25 µM with SNB-75 CNS, greater than 21.9 µM in the assay on SW-620 colon and greater than 25 µM in the assay on T-47D breast. Further, the TGI in the assay with A549 NSCLC, in the assay on CCRF-CEM leukemia, in the assay with HCT-15 colon, with HS 578T breast, with MCF7 breast and with SK-MEL-2 melanoma was greater than 25 µM throughout. Also, the TGI in the assay on SNB-19 CNS, with SNB-75 CNS, in the assay with SW-620 colon and in the assay on T-47D breast was greater than 25 µM in each case.

Source of the values: PubChem BioAssay (NCI).
